# US20230242585A1, “IMMUNOMODULATORS” (Bristol-Myers Squibb Company, priority 2020, published 2023)
# Starred links: 1 amine or outer side, 2 acyl side, 3 side chain; linkers in the order of their positions; H or OH if unused. Positions of bridges follow the written chain, without caps; N, C: chain ends. Non-standard residues stand in square brackets, D forms with d. Residues, ends and D or L forms follow the SMILES beside them. X39 = O=C([C@H](CNC[C@H](O)[C@@H](O)[C@H](O)C(O)CO[C@H]1O[C@H](CO)[C@H](O)[C@H](O)[C@H]1O)N[*:1])[*:2]; X56 = O=C([C@H](CCNC[C@@H](O)[C@H](O)[C@@H](O)[C@@H](O)[C@H](O)CO)N[*:1])[*:2]; X49 = O=C([C@H](CNC[C@@H](O)[C@H](O)[C@@H](O)[C@@H](O)[C@H](O)CO)N[*:1])[*:2]; X41 = O=C([C@H](CCNC1[C@@H](O)[C@@H](O)[C@@H](O)[C@H](O)[C@H]1O)N[*:1])[*:2]; X25 = CC(=O)N[C@@H](CNCC[C@H](N[*:1])C(=O)[*:2])[C@@H](O)[C@H](O)[C@H](O)CO; X40 = O=C([C@H](CNC1[C@@H](O)[C@@H](O)[C@@H](O)[C@H](O)[C@H]1O)N[*:1])[*:2]; X24 = CC(=O)N[C@@H](CNC[C@H](N[*:1])C(=O)[*:2])[C@@H](O)[C@H](O)[C@H](O)CO; X11 = O=C([C@H](CNC[C@H](O)[C@@H](O)[C@@H](O)[C@H](O)CO)N[*:1])[*:2]; Trp(1-CH2COOH) = N[C@@H](Cc1cn(CC(=O)O)c2ccccc12)C(=O)O; Hyp = O=C(O)[C@@H]1C[C@@H](O)CN1; NMeNle = CCCC[C@H](NC)C(=O)O; NMeA = CN[C@@H](C)C(=O)O; Dab = NCC[C@H](N)C(=O)O
# Molecular target: T1, PD-1/PD-L1 (Homo sapiens, UniProt Q9NZQ7)
# T1 construct: TVMV protease site (linker) (C); made in house; host or cells: HEK293T cells
# Assay: PD-1/PD-L1 Homogenous Time-Resolved Fluorescence (HTRF) binding assay
# Conditions: PD-L1-His 10 nM, PD-1-Ig 20 nM
# Excerpt: The ability of the compounds of formula (I) to bind to PD-L1 was investigated using a PD-1/PD-L1 Homogenous Time-Resolved Fluorescence (HTRF) binding assay.
# The interaction of PD-1 and PD-L1 can be assessed using soluble, purified preparations of the extracellular domains of the two proteins. The PD-1 and PD-L1 protein extracellular domains were expressed as fusion proteins with detection tags, for PD-1, the tag was the Fc portion of Immunoglobulin (PD-1-Ig) and for PD-L1 it was the 6 histidine motif (PD-L1-His). All binding studies were performed in an HTRF assay buffer consisting of dPBS supplemented with 0.1% […] bovine serum albumin and 0.05% (v/v) Tween-20. For the h/PD-L1-His binding assay, inhibitors were pre-incubated with PD-L1-His (10 nM final) for 15 m in 4 µl of assay buffer, followed by addition of PD-1-Ig (20 nM final) in 1 µl of assay buffer and further incubation for 15 m. HTRF detection was achieved using europium crypate-labeled anti-Ig (1 nM final) and allophycocyanin (APC) labeled anti-His (20 nM final). Antibodies were diluted in HTRF detection buffer and 5 µl was dispensed on top of the binding reaction. The reaction mixture was allowed to equilibrate for 30 minutes and the resulting signal (665 nm/620 nm ratio) was obtained using an EnVision fluorometer. Additional binding assays were established between the human proteins PD-1-Ig/PD-L2-His (20 & 5 nM, respectively) and CD80-His/PD-L1-Ig (100 & 10 nM, respectively).
# Recombinant Proteins: Human PD-1 (25-167) with a C-terminal human Fc domain of immunoglobulin G (Ig) epitope tag [hPD-1 (25-167)-3S-IG] and human PD-L1 (18-239) with a C-terminal His epitope tag [hPD-L1(18-239)-TVMV-His] were expressed in HEK293T cells and purified sequentially by ProteinA affinity chromatography and size exclusion chromatography. Human PD-L2-His and CD80-His was obtained through commercial sources.
# Table 1 lists the IC50 values for representative examples of this disclosure measured in the PD-1/PD-L1 Homogenous Time-Resolved Fluorescence (HTRF) binding assay.
# T1 sequence (Q9NZQ7 18-239): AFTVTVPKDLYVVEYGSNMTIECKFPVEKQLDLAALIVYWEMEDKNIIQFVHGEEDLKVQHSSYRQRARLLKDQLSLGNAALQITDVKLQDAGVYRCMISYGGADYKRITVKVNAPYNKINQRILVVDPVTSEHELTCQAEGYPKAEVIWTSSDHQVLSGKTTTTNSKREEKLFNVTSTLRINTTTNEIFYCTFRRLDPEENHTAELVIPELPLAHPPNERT
row,SMILES,IC50 [nM]
1,CCCC[C@H]1C(=O)N(C)[C@@H](CCCC)C(=O)N[C@@H](CC(C)C)C(=O)N[C@H](C(=O)NCC(N)=O)CSCC(=O)N[C@@H](Cc2ccc(O)cc2)C(=O)N(C)[C@@H](C)C(=O)N[C@@H](CC(N)=O)C(=O)N2CCC[C@H]2C(=O)N[C@@H](CNC2[C@@H](O)[C@@H](O)[C@@H](O)[C@H](O)[C@H]2O)C(=O)N[C@@H](CC(C)C)C(=O)N2C[C@H](O)C[C@H]2C(=O)N[C@@H](Cc2c[nH]c3ccccc23)C(=O)N[C@@H](CCNC2[C@@H](O)[C@@H](O)[C@@H](O)[C@H](O)[C@H]2O)C(=O)N[C@@H](Cc2cn(CC(=O)O)c3ccccc23)C(=O)N1C (some centres unmarked) [Example 2033] ({CH2CO}-Y[NMeA]NP[X40]L[Hyp]W[X41][Trp(1-CH2COOH)][NMeNle][NMeNle]LCG-NH2; thioether N-14),8.8
2,CCCC[C@H]1C(=O)N(C)[C@@H](CCCC)C(=O)N[C@@H](CC(C)C)C(=O)N[C@H](C(=O)NCC(N)=O)CSCC(=O)N[C@@H](Cc2ccc(O)cc2)C(=O)N(C)[C@@H](C)C(=O)N[C@@H](CC(N)=O)C(=O)N2CCC[C@H]2C(=O)N[C@@H](CNC[C@@H](O)[C@H](O)[C@@H](O)[C@@H](O)[C@H](O)CO)C(=O)N[C@@H](CC(C)C)C(=O)N2C[C@H](O)C[C@H]2C(=O)N[C@@H](Cc2c[nH]c3ccccc23)C(=O)N[C@@H](CCNC[C@@H](O)[C@H](O)[C@@H](O)[C@@H](O)[C@H](O)CO)C(=O)N[C@@H](Cc2cn(CC(=O)O)c3ccccc23)C(=O)N1C [Example 2029] ({CH2CO}-Y[NMeA]NP[X49]L[Hyp]W[X56][Trp(1-CH2COOH)][NMeNle][NMeNle]LCG-NH2; thioether N-14),8.5
3,CCCC[C@H]1C(=O)N(C)[C@@H](CCCC)C(=O)N[C@@H](CC(C)C)C(=O)N[C@H](C(=O)NCC(N)=O)CSCC(=O)N[C@@H](Cc2ccc(O)cc2)C(=O)N(C)[C@@H](C)C(=O)N[C@@H](CC(N)=O)C(=O)N2CCC[C@H]2C(=O)N[C@@H](CNC[C@H](NC(C)=O)[C@@H](O)[C@H](O)[C@H](O)CO)C(=O)N[C@@H](CC(C)C)C(=O)N2C[C@H](O)C[C@H]2C(=O)N[C@@H](Cc2c[nH]c3ccccc23)C(=O)N[C@@H](CCNC[C@H](NC(C)=O)[C@@H](O)[C@H](O)[C@H](O)CO)C(=O)N[C@@H](Cc2cn(CC(=O)O)c3ccccc23)C(=O)N1C [Example 2009] ({CH2CO}-Y[NMeA]NP[X24]L[Hyp]W[X25][Trp(1-CH2COOH)][NMeNle][NMeNle]LCG-NH2; thioether N-14),5.7

# Results, then the compound that gave them:
row,IC50 [nM],SMILES
1,11,CCCC[C@H]1C(=O)N(C)[C@@H](CCCC)C(=O)N[C@@H](CC(C)C)C(=O)N[C@H](C(=O)NCC(N)=O)CSCC(=O)N[C@@H](Cc2ccc(O)cc2)C(=O)N(C)[C@@H](C)C(=O)N[C@@H](CC(N)=O)C(=O)N2CCC[C@H]2C(=O)N[C@@H](CNC[C@H](O)[C@@H](O)[C@H](O)C(O)CO[C@H]2O[C@H](CO)[C@H](O)[C@H](O)[C@H]2O)C(=O)N[C@@H](CC(C)C)C(=O)N2C[C@H](O)C[C@H]2C(=O)N[C@@H](Cc2c[nH]c3ccccc23)C(=O)N[C@@H](CCN)C(=O)N[C@@H](Cc2cn(CC(=O)O)c3ccccc23)C(=O)N1C (some centres unmarked) [Example 2037] ({CH2CO}-Y[NMeA]NP[X39]L[Hyp]W[Dab][Trp(1-CH2COOH)][NMeNle][NMeNle]LCG-NH2; thioether N-14)
2,7.2,CCCC[C@H]1C(=O)N(C)[C@@H](CCCC)C(=O)N[C@@H](CC(C)C)C(=O)N[C@H](C(=O)NCC(N)=O)CSCC(=O)N[C@@H](Cc2ccc(O)cc2)C(=O)N(C)[C@@H](C)C(=O)N[C@@H](CC(N)=O)C(=O)N2CCC[C@H]2C(=O)N[C@@H](CNC[C@H](O)[C@@H](O)[C@@H](O)[C@H](O)CO)C(=O)N[C@@H](CC(C)C)C(=O)N2C[C@H](O)C[C@H]2C(=O)N[C@@H](Cc2c[nH]c3ccccc23)C(=O)N[C@@H](CCN)C(=O)N[C@@H](Cc2cn(CC(=O)O)c3ccccc23)C(=O)N1C [Example 2017] ({CH2CO}-Y[NMeA]NP[X11]L[Hyp]W[Dab][Trp(1-CH2COOH)][NMeNle][NMeNle]LCG-NH2; thioether N-14)
